The assay concerns leukocyte rolling in post-capillary venules of the cremaster muscle. The conditions noted are these: topical, LPS-induced rolling; FIG. 2 and 3.

In the case of “Cys1-Arg2-Lys3-Met4-Pro5-Gly6-Val7-Lys8-Met9-Cys10 [SEQ ID NO: 12]”, the “inhibition of leukocyte rolling (in words)” value is “maintained inhibitory activity”.

As to “Ile1-Pro2-Arg3-Cys4-Arg5-Lys6-Met7-Pro8-Gly9-Val10-Ala11-Met12-Cys13 [SEQ ID NO: 10]”, the “inhibition of leukocyte rolling (in words)” value is “not efficient”.

(Values after patent US8304382B2, “Anti-inflammatory and anti-allergic cyclic peptides” (Cristalia Productos Quimicos Farmaceuticos Ltda., priority 2006, dated 2012).)
